Assay results: ChEMBL document CHEMBL1909046, “DrugMatrix in vitro pharmacology data”

Tests used:
[1] = biological target: T1, Alpha-1A adrenergic receptor (Rattus norvegicus, UniProt P43140); experiment: DRUGMATRIX: Alpha-1A adrenergic receptor radioligand binding (ligand: prazosin); type: cell membranes, Wistar, Submaxillary gland, Membrane; details: Not Active = under 50% inhibition at 10 µM; for Ki: read-out: Ki
T1 sequence (P43140 whole entry): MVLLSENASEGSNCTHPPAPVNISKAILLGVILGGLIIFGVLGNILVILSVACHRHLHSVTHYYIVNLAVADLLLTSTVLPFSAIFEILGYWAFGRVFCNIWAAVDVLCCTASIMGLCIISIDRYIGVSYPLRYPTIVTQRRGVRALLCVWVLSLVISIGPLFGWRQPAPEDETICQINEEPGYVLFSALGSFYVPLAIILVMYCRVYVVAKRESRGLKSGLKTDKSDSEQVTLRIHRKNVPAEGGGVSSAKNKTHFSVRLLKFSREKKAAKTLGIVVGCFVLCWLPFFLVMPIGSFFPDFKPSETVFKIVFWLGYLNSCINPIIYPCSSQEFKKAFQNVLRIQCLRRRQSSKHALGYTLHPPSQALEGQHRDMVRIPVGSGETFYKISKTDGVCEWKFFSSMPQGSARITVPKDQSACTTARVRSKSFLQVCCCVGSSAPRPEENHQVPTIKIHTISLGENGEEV

[2] = biological target: T2, Alpha-1B adrenergic receptor (Rattus norvegicus, UniProt P15823); experiment: DRUGMATRIX: Alpha-1B adrenergic receptor radioligand binding (ligand: prazosin); type: cell membranes, Wistar, Liver, Membrane; details: Not Active = under 50% inhibition at 10 µM
T2 sequence (P15823 whole entry): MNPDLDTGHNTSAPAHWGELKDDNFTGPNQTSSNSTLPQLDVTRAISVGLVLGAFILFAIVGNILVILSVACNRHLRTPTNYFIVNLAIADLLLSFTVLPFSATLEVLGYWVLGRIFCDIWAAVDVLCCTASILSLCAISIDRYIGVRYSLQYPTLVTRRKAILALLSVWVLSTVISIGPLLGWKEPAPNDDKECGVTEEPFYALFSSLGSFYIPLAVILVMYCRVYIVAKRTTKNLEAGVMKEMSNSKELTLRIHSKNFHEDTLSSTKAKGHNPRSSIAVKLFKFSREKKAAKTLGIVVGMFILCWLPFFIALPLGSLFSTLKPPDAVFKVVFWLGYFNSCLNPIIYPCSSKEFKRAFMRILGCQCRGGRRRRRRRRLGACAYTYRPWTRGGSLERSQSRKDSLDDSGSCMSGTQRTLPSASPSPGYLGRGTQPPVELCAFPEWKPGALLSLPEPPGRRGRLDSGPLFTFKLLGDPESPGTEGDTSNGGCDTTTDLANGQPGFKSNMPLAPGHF

[3] = biological target: Epidermal growth factor receptor (Homo sapiens, UniProt P00533); experiment: DRUGMATRIX: Protein Tyrosine Kinase, EGF Receptor enzyme inhibition (substrate: Poly(Glu:Tyr)); type: cell-based, Insect cells; details: Not Active = under 50% inhibition at 10 µM
[4] = biological target: T3, Amine oxidase [flavin-containing] A (Homo sapiens, UniProt P21397); experiment: DRUGMATRIX: Monoamine Oxidase MAO-A enzyme inhibition (substrate: Kynuramine); parameters: species or system BTI-TN-5B1-4; details: bti-tn-5b1-4; Not Active = under 50% inhibition at 10 µM
T3 sequence (P21397 whole entry): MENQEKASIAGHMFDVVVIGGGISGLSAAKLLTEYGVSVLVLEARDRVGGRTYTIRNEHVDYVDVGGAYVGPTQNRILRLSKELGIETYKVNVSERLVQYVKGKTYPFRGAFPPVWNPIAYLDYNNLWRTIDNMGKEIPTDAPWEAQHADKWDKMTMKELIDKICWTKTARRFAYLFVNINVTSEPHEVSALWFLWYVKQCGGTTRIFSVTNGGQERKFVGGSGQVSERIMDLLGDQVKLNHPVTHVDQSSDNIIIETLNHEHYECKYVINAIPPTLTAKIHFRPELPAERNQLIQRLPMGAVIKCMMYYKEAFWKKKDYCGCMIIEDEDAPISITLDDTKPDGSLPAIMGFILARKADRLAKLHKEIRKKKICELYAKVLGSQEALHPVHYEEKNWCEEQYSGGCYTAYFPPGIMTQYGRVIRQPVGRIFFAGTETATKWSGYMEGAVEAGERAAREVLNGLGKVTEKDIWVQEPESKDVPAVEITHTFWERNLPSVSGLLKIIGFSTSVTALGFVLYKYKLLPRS

[5] = DRUGMATRIX: Tumor Necrosis Factor (TNF), Non-Selective radioligand binding (ligand: [125I] TNF-alpha); type: cell membranes, Membrane; details: u-937; Not Active = under 50% inhibition at 10 µM
[6] = biological target: Vascular endothelial growth factor receptor 1 (Homo sapiens, UniProt P17948); experiment: biochemical; type: cell-based, HUVEC; details: huvec; note: in other assays of this panel Not Active means under 50% inhibition at 10 µM
[7] = biological target: C-C chemokine receptor type 5 (Homo sapiens, UniProt P51681); type: cell membranes, Membrane; details: hek293; note: in other assays of this panel Not Active means under 50% inhibition at 10 µM
C-C chemokine receptor type 5, sequence (P51681 whole entry): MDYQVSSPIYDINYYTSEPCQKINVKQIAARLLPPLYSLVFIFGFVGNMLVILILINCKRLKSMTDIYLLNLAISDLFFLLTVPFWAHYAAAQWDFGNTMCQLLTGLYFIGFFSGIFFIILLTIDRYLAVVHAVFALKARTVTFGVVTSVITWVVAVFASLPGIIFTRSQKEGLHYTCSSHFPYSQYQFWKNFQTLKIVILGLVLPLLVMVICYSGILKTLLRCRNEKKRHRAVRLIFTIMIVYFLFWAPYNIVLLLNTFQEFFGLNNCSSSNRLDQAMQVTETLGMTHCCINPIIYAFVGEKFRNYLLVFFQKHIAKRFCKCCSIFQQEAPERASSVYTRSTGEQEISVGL

Epidermal growth factor receptor, sequence (P00533 whole entry): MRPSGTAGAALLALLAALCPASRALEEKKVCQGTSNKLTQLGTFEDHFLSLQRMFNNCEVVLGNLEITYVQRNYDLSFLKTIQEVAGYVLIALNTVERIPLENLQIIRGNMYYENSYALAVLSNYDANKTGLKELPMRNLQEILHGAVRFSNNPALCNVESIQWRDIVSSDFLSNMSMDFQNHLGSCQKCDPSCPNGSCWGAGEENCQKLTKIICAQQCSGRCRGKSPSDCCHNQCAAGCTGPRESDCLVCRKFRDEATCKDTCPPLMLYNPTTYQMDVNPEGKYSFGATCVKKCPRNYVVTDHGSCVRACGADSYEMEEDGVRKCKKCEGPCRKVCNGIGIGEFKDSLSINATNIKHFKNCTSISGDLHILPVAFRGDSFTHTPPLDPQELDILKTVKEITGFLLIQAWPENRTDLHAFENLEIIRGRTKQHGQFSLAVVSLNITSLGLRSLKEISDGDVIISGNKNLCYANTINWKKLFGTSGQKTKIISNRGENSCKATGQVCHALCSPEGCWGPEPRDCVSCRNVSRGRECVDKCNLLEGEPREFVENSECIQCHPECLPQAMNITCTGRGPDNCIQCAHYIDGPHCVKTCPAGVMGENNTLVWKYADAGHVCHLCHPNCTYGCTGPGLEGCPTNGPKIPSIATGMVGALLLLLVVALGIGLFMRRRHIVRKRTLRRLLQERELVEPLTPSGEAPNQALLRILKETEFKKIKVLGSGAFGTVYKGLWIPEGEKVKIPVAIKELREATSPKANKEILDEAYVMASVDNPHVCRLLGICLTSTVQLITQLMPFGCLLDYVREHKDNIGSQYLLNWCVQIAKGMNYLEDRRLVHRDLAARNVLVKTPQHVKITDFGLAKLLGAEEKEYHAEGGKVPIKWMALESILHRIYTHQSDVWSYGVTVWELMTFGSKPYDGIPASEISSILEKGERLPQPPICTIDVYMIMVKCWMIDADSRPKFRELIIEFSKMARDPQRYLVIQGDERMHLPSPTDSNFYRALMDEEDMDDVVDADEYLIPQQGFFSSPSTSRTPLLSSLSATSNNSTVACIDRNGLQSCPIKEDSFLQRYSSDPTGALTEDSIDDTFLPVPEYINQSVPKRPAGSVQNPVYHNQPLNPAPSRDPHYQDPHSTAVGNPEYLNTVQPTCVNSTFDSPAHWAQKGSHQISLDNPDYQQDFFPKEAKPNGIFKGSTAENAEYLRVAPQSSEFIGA
Vascular endothelial growth factor receptor 1, sequence (P17948 whole entry): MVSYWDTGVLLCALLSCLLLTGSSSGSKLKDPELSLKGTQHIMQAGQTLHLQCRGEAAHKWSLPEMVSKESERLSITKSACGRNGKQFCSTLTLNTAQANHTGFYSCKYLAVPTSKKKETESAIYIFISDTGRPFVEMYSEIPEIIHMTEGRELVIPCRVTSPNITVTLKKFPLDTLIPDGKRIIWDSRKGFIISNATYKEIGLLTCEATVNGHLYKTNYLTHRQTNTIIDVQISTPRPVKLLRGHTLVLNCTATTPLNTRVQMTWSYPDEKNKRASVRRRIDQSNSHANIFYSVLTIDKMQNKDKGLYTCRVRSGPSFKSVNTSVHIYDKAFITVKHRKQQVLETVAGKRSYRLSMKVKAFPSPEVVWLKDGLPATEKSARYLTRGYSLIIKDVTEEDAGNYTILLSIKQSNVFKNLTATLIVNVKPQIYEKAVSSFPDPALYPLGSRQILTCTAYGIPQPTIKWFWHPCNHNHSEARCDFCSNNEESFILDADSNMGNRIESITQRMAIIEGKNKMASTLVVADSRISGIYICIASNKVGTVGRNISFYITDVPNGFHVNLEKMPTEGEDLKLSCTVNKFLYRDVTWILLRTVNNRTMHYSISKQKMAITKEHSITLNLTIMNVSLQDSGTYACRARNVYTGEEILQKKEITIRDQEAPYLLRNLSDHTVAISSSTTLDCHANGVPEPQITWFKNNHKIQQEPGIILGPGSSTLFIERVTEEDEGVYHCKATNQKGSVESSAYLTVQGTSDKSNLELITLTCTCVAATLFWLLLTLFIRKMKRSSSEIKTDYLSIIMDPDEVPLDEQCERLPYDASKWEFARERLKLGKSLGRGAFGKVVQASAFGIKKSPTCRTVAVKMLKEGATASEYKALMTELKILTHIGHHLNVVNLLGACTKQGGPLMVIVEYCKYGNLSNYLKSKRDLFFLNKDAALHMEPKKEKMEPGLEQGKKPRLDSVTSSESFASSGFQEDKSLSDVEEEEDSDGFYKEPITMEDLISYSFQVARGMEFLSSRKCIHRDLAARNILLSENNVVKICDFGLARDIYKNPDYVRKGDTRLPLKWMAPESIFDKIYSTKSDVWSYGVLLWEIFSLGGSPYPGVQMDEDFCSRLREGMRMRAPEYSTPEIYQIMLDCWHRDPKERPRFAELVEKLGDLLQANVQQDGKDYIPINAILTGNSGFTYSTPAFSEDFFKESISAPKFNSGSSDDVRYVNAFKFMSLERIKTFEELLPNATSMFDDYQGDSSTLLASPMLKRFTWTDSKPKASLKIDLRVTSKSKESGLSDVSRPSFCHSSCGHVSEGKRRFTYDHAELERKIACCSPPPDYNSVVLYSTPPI

Compound	IC50 [1]	IC50 [2]	IC50 ([3]; insect cells)	IC50 [4]	IC50 [5]	Ki [5]	IC50 [6]	IC50 [7]	IC50 ([1]; read-out: IC50) [nM]	Ki [1] [nM]	IC50 ([3]; read-out: IC50) [nM]
CCS(=O)(=O)CCn1c([N+](=O)[O-])cnc1C [TINIDAZOLE]	Not Active	Not Active	Not Active	Not Active	Not Active	Not Active	Not Active	Not Active			
Nc1nc2c(c(=O)[nH]1)N(C=O)C(CNc1ccc(C(=O)N[C@@H](CCC(=O)O)C(=O)O)cc1)CN2 (stereo partly specified) [LEUCOVORIN]	Not Active	Not Active	Not Active	Not Active	Not Active	Not Active	Not Active	Not Active			
CC(=O)O[C@H]1C[C@@H]2CC[C@@H]3[C@H](CC[C@@]4(C)[C@H]3C[C@H]([N+]3(C)CCCCC3)[C@@H]4OC(C)=O)[C@@]2(C)C[C@@H]1N1CCCCC1.[Br-] [VECURONIUM BROMIDE]	Not Active	Not Active	Not Active	Not Active	Not Active	Not Active	Not Active	Not Active			
C[C@@H](O)[C@H]1C(=O)N2C(C(=O)O)=C(S[C@@H]3CN[C@H](C(=O)N(C)C)C3)[C@H](C)[C@H]12 [MEROPENEM]	Not Active	Not Active	Not Active	Not Active	Not Active	Not Active	Not Active	Not Active			
Cc1cn([C@H]2C[C@H](N=[N+]=[N-])[C@@H](CO)O2)c(=O)[nH]c1=O [ZIDOVUDINE]	Not Active	Not Active		Not Active	Not Active	Not Active	Not Active	Not Active			
COc1cc(N)nc2[nH]c(-c3ccc(F)cc3)c(-c3ccncc3)c12	Not Active	Not Active		Not Active	Not Active	Not Active	Not Active	Not Active			
CN1C2CCCC1CC(NC(=O)c1nn(C)c3ccccc13)C2 (stereo unspecified) [GRANISETRON]	Not Active		Not Active	Not Active			Not Active	Not Active			
CC(C)OC(=O)C(C)(C)Oc1ccc(C(=O)c2ccc(Cl)cc2)cc1 [FENOFIBRATE]	Not Active		Not Active	Not Active			Not Active	Not Active			
OCCN1CCN(CCCN2c3ccccc3Sc3ccc(C(F)(F)F)cc32)CC1 [FLUPHENAZINE]				Not Active			Not Active	Not Active	24	9.58	40100
CC[C@@H](CO)NC(=O)[C@@H]1C=C2c3cccc4c3c(cn4C)C[C@H]2N(C)C1 [METHYSERGIDE]	Not Active		Not Active	Not Active			Not Active	Not Active			
CC(=O)Nc1nnc(S(N)(=O)=O)s1 [ACETAZOLAMIDE]	Not Active		Not Active	Not Active			Not Active	Not Active			
CCN(CC)CC#CCOC(=O)C(O)(c1ccccc1)C1CCCCC1 (stereo unspecified) [OXYBUTYNIN]	Not Active		Not Active	Not Active			Not Active	Not Active			
O=c1[nH]c2ccccc2n1CCCN1CCC(n2c(=O)[nH]c3cc(Cl)ccc32)CC1 [DOMPERIDONE]			Not Active	Not Active			Not Active	Not Active	285	116	
O=c1n(CCCN2CCN(c3cccc(Cl)c3)CC2)nc2ccccn12 [TRAZODONE]			Not Active	Not Active			Not Active	Not Active	117	47	
C#CCN(C)[C@H](C)Cc1ccccc1 [SELEGILINE]	Not Active	Not Active	Not Active		Not Active	Not Active	Not Active	Not Active			
